Results taken from patent US20260325685A1, “Radiopharmaceutical Compositions Targeting Carbonic Anhydrase IX and Uses Thereof” (RayzeBio, Inc., priority 2023, published 2026).
Like-named read-outs stand apart in the source and are kept apart here.

Legend:
human CA-IX = target: T1, human CA-IX (Homo sapiens, UniProt Q16790); assay: Surface Plasmon Resonance (SPR) binding kinetics to recombinant human CA-IX (Biacore 8K, single-cycle kinetics, 1:1 binding model)
T1 construct: purchased Acro CA9-H82E3
Method in brief: (§1)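 Proteins were captured on streptavidin chips at 1200-1800 RU (CA-IX 180 s, CA-XII 75 s injection). Compound was run at 9 concentrations (100-0.39 nM) in PBS-P+ pH 7.4 with 1% DMSO, 120 s association, 1200 s dissociation, 25° C. Rate constants came from reference- and DMSO-corrected curves.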

human CA-XII = target: T2, human CA-XII (Homo sapiens, UniProt O43570); assay: Surface Plasmon Resonance (SPR) binding kinetics to recombinant human CA-XII (Biacore 8K, single-cycle kinetics, 1:1 binding model)
T2 construct: purchased Creative BioMart CA12-261H
T2 sequence (O43570 25-354): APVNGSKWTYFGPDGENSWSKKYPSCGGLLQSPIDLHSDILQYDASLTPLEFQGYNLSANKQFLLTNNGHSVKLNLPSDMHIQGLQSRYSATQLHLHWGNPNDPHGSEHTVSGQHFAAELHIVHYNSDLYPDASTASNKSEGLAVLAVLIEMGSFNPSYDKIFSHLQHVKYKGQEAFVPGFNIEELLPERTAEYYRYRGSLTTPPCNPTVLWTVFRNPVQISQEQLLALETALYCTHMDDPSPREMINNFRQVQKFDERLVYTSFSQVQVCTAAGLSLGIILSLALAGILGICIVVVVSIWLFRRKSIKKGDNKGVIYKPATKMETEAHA
Method in brief: as §1

[1] = Chelated Metal: Lu-175; SPR, 25° C., pH 7.4; read-out: CAIX KD
[2] = Chelated Metal: Lu-175, 25° C., pH 7.4, read-out: CAXII KD

SMILES | Kd (human CA-IX; [1]) | Kd (human CA-XII; [2]) | Kd (human CA-IX; read-out: CAIX KD; Chelated Metal: Lu-175; SPR, 25° C., pH 7.4) | Kd (human CA-XII; read-out: CAXII KD, Chelated Metal: Lu-175, 25° C., pH 7.4)
CC(CCC(=O)N[C@@H](CC(=O)N[C@@H](CC(=O)N1CCN(C(=O)CN2CCN(CC(=O)O)CCN(CC(=O)O)CCN(CC(=O)O)CC2)C[C@H]1C(=O)NCCn1nnc(C23CC(C(=O)Nc4nnc(S(N)(=O)=O)s4)(C2)C3)c1C(=O)O)C(=O)O)C(=O)O)(c1ccc(O)cc1)c1ccc(O)cc1.[Lu+3] [Compound 107.60] | < 1 nM | 2.5 to 10 nM |  | 
CC(CCC(=O)N[C@@H](CC(=O)N[C@@H](CC(=O)N1CCN(C(=O)CN2CCN(CC(=O)O)CCN(CC(=O)O)CCN(CC(=O)O)CC2)C[C@H]1C(=O)NCCn1nnc(C(=O)O)c1C12CC(C(=O)Nc3nnc(S(N)(=O)=O)s3)(C1)C2)C(=O)O)C(=O)O)(c1ccc(O)cc1)c1ccc(O)cc1.[Lu+3] [Compound 107.61] | 1 to 2.5 nM | > 10 nM |  | 
CC(CCCC(=O)N1CCC(C(N)=O)(C(=O)NCC(=O)N2CCN(C(=O)CN3CCN(CC(=O)O)CCN(CC(=O)O)CCN(CC(=O)O)CC3)C[C@H]2C(=O)NCCn2cc(C34CC(C(=O)Nc5nnc(S(N)(=O)=O)s5)(C3)C4)nn2)CC1)(c1ccc(O)cc1)c1ccc(O)cc1.[Lu+3] [Compound 107] | < 1 nM | > 10 nM |  | 
NS(=O)(=O)c1nnc(NC(=O)C23CC(c4cn(CCNC(=O)[C@H]5CN(C(=O)CN6CCN(CC(=O)O)CCN(CC(=O)O)CCN(CC(=O)O)CC6)CCN5C(=O)[C@@H]5COCCN5C(=O)CCc5n[nH]c6ccccc56)nn4)(C2)C3)s1.[Lu+3] [Compound 108.1] | 2.5 to 10 nM | > 10 nM |  | 
CC(CCCC(=O)N1CCOC[C@H]1C(=O)N[C@@H](CC(=O)N1CCN(C(=O)CN2CCN(CC(=O)O)CCN(CC(=O)O)CCN(CC(=O)O)CC2)C[C@@H]1C(=O)NCCn1cc(C23CC(C(=O)Nc4nnc(S(N)(=O)=O)s4)(C2)C3)nn1)C(=O)O)(c1ccc(O)cc1)c1ccc(O)cc1.[Lu+3] [Compound 108.2] | < 1 nM | > 10 nM |  | 
CC(CCC(=O)N1CCNC[C@H]1C(=O)N[C@@H](CC(=O)N1CCN(C(=O)CN2CCN(CC(=O)O)CCN(CC(=O)O)CCN(CC(=O)O)CC2)C[C@@H]1C(=O)NCCn1cc(C23CC(C(=O)Nc4nnc(S(N)(=O)=O)s4)(C2)C3)nn1)C(N)=O)(c1ccc(O)cc1)c1ccc(O)cc1.[Lu+3] [Compound 108.3] | 2.5 to 10 nM | > 10 nM |  | 
CC(CCC(=O)N1CCOC[C@@H]1C(=O)N[C@@H](CC(=O)N1CCN(C(=O)CN2CCN(CC(=O)O)CCN(CC(=O)O)CCN(CC(=O)O)CC2)C[C@@H]1C(=O)NCCn1cc(C23CC(C(=O)Nc4nnc(S(N)(=O)=O)s4)(C2)C3)nn1)C(=O)O)(c1ccc(O)cc1)c1ccc(O)cc1.[Lu+3] [Compound 108.4] | 1 to 2.5 nM | > 10 nM |  | 
CC(CCC(=O)N1CCC[C@@H]1C(=O)N[C@@H](CC(=O)N1CCN(C(=O)CN2CCN(CC(=O)O)CCN(CC(=O)O)CCN(CC(=O)O)CC2)C[C@@H]1C(=O)NCCn1cc(C23CC(C(=O)Nc4nnc(S(N)(=O)=O)s4)(C2)C3)nn1)C(=O)O)(c1ccc(O)cc1)c1ccc(O)cc1.[Lu+3] [Compound 108.5] | 2.5 to 10 nM | > 10 nM |  | 
CC(CCC(=O)N1CCC[C@H]1C(=O)N[C@@H](CC(=O)N1CCN(C(=O)CN2CCN(CC(=O)O)CCN(CC(=O)O)CCN(CC(=O)O)CC2)C[C@@H]1C(=O)NCCn1cc(C23CC(C(=O)Nc4nnc(S(N)(=O)=O)s4)(C2)C3)nn1)C(=O)O)(c1ccc(O)cc1)c1ccc(O)cc1.[Lu+3] [Compound 108] |  |  | 1 to 2.5 nM | > 10 nM
NS(=O)(=O)c1nnc(NC(=O)C23CC(c4cn(CCNC(=O)[C@@H]5CN(C(=O)CN6CCN(CC(=O)O)CCN(CC(=O)O)CCN(CC(=O)O)CC6)CCN5C(=O)C[C@H](NC(=O)C[C@H](NC(=O)c5ccc(C6CC6)cc5)C(=O)O)C(=O)O)nn4)(C2)C3)s1.[Lu+3] [Compound 109.1] | < 1 nM | 2.5 to 10 nM |  | 
NS(=O)(=O)c1nnc(NC(=O)C23CC(c4cn(CCNC(=O)[C@@H]5CN(C(=O)CN6CCN(CC(=O)O)CCN(CC(=O)O)CCN(CC(=O)O)CC6)CCN5C(=O)C[C@H](NC(=O)C[C@H](NC(=O)CCC5CCCCCC5)C(=O)O)C(=O)O)nn4)(C2)C3)s1.[Lu+3] [Compound 109.2] | < 1 nM | 1 to 2.5 nM |  | 
Cc1c(C(=O)N[C@@H](CC(=O)N[C@@H](CC(=O)N2CCN(C(=O)CN3CCN(CC(=O)O)CCN(CC(=O)O)CCN(CC(=O)O)CC3)C[C@H]2C(=O)NCCn2cc(C34CC(C(=O)Nc5nnc(S(N)(=O)=O)s5)(C3)C4)nn2)C(=O)O)C(=O)O)n[nH]c1C(F)(F)F.[Lu+3] [Compound 109.3] | < 1 nM | < 1 nM |  | 
NS(=O)(=O)c1nnc(NC(=O)C23CC(c4cn(CCNC(=O)[C@@H]5CN(C(=O)CN6CCN(CC(=O)O)CCN(CC(=O)O)CCN(CC(=O)O)CC6)CCN5C(=O)C[C@H](NC(=O)C[C@H](NC(=O)c5ccc(C6CC6)nn5)C(=O)O)C(=O)O)nn4)(C2)C3)s1.[Lu+3] [Compound 109.4] | < 1 nM | 2.5 to 10 nM |  | 
NS(=O)(=O)c1nnc(NC(=O)C23CC(c4cn(CCNC(=O)[C@@H]5CN(C(=O)CN6CCN(CC(=O)O)CCN(CC(=O)O)CCN(CC(=O)O)CC6)CCN5C(=O)C[C@H](NC(=O)C[C@H](NC(=O)CCc5ccc(O)cc5)C(=O)O)C(=O)O)nn4)(C2)C3)s1.[Lu+3] [Compound 109.5] | 1 to 2.5 nM | 2.5 to 10 nM |  | 
NS(=O)(=O)c1nnc(NC(=O)C23CC(c4cn(CCNC(=O)[C@@H]5CN(C(=O)CN6CCN(CC(=O)O)CCN(CC(=O)O)CCN(CC(=O)O)CC6)CCN5C(=O)C[C@H](NC(=O)C[C@H](NC(=O)c5cc(C(F)(F)F)[nH]n5)C(=O)O)C(=O)O)nn4)(C2)C3)s1.[Lu+3] [Compound 109.6] | < 1 nM | 2.5 to 10 nM |  | 
NS(=O)(=O)c1nnc(NC(=O)C23CC(c4cn(CCNC(=O)[C@@H]5CN(C(=O)CN6CCN(CC(=O)O)CCN(CC(=O)O)CCN(CC(=O)O)CC6)CCN5C(=O)C[C@H](NC(=O)C[C@H](NC(=O)c5n[nH]c6ccccc56)C(=O)O)C(=O)O)nn4)(C2)C3)s1.[Lu+3] [Compound 109.7] | < 1 nM | 2.5 to 10 nM |  | 
NS(=O)(=O)c1nnc(NC(=O)C23CC(c4cn(CCNC(=O)[C@@H]5CN(C(=O)CN6CCN(CC(=O)O)CCN(CC(=O)O)CCN(CC(=O)O)CC6)CCN5C(=O)C[C@H](NC(=O)C[C@H](NC(=O)c5coc(C6CC6)n5)C(=O)O)C(=O)O)nn4)(C2)C3)s1.[Lu+3] [Compound 109.8] | 1 to 2.5 nM | 2.5 to 10 nM |  | 
NS(=O)(=O)c1nnc(NC(=O)C23CC(c4cn(CCNC(=O)[C@@H]5CN(C(=O)CN6CCN(CC(=O)O)CCN(CC(=O)O)CCN(CC(=O)O)CC6)CCN5C(=O)C[C@H](NC(=O)C[C@H](NC(=O)CCC56CCC(CC5)C6)C(=O)O)C(=O)O)nn4)(C2)C3)s1.[Lu+3] [Compound 109.9] | < 1 nM | 1 to 2.5 nM |  | 
NS(=O)(=O)c1nnc(NC(=O)C23CC(c4cn(CCNC(=O)[C@@H]5CN(C(=O)CN6CCN(CC(=O)O)CCN(CC(=O)O)CCN(CC(=O)O)CC6)CCN5C(=O)C[C@H](NC(=O)C[C@H](NC(=O)Cc5n[nH]c6ccccc56)C(=O)O)C(=O)O)nn4)(C2)C3)s1.[Lu+3] [Compound 109.10] | < 1 nM | 2.5 to 10 nM |  | 
NS(=O)(=O)c1nnc(NC(=O)C23CC(c4cn(CCNC(=O)[C@@H]5CN(C(=O)CN6CCN(CC(=O)O)CCN(CC(=O)O)CCN(CC(=O)O)CC6)CCN5C(=O)C[C@H](NC(=O)C[C@H](NC(=O)Cc5n[nH]c6ccc(F)cc56)C(=O)O)C(=O)O)nn4)(C2)C3)s1.[Lu+3] [Compound 109.11] | < 1 nM | 2.5 to 10 nM |  | 
NS(=O)(=O)c1nnc(NC(=O)C23CC(c4cn(CCNC(=O)[C@@H]5CN(C(=O)CN6CCN(CC(=O)O)CCN(CC(=O)O)CCN(CC(=O)O)CC6)CCN5C(=O)C[C@H](NC(=O)C[C@H](NC(=O)c5ccc(C6CC6)nc5)C(=O)O)C(=O)O)nn4)(C2)C3)s1.[Lu+3] [Compound 109.12] | 1 to 2.5 nM | 2.5 to 10 nM |  | 
N[C@@H](CC(=O)N[C@@H](CC(=O)N1CCN(C(=O)CN2CCN(CC(=O)O)CCN(CC(=O)O)CCN(CC(=O)O)CC2)C[C@H]1C(=O)NCCn1cc(C23CC(C(=O)Nc4nnc(S(N)(=O)=O)s4)(C2)C3)nn1)C(=O)O)C(=O)O.[Lu+3] [Compound 109.13] | < 1 nM | 2.5 to 10 nM |  | 
NS(=O)(=O)c1nnc(NC(=O)C23CC(c4cn(CCNC(=O)[C@@H]5CN(C(=O)CN6CCN(CC(=O)O)CCN(CC(=O)O)CCN(CC(=O)O)CC6)CCN5C(=O)C[C@H](NC(=O)C[C@H](NC(=O)CCCc5ccc(I)cc5)C(=O)O)C(=O)O)nn4)(C2)C3)s1.[Lu+3] [Compound 109.14] | < 1 nM | 2.5 to 10 nM |  | 
NS(=O)(=O)c1nnc(NC(=O)C23CC(c4cn(CCNC(=O)[C@@H]5CN(C(=O)CN6CCN(CC(=O)O)CCN(CC(=O)O)CCN(CC(=O)O)CC6)CCN5C(=O)C[C@H](NC(=O)C[C@H](NC(=O)c5n[nH]c6ccc(F)cc56)C(=O)O)C(=O)O)nn4)(C2)C3)s1.[Lu+3] [Compound 109.15] | < 1 nM | 2.5 to 10 nM |  | 
NS(=O)(=O)c1nnc(NC(=O)C23CC(c4cn(CCNC(=O)[C@@H]5CN(C(=O)CN6CCN(CC(=O)O)CCN(CC(=O)O)CCN(CC(=O)O)CC6)CCN5C(=O)C[C@H](NC(=O)C[C@H](NC(=O)c5ccc(S(F)(F)(F)(F)F)cc5)C(=O)O)C(=O)O)nn4)(C2)C3)s1.[Lu+3] [Compound 109.16] | < 1 nM | 2.5 to 10 nM |  | 
NS(=O)(=O)c1nnc(NC(=O)C23CC(c4cn(CCNC(=O)[C@@H]5CN(C(=O)CN6CCN(CC(=O)O)CCN(CC(=O)O)CCN(CC(=O)O)CC6)CCN5C(=O)C[C@H](NC(=O)C[C@H](NC(=O)c5coc(C(F)(F)F)n5)C(=O)O)C(=O)O)nn4)(C2)C3)s1.[Lu+3] [Compound 109.17] | 2.5 to 10 nM | > 10 nM |  | 
NS(=O)(=O)c1nnc(NC(=O)C23CC(c4cn(CCNC(=O)[C@@H]5CN(C(=O)CN6CCN(CC(=O)O)CCN(CC(=O)O)CCN(CC(=O)O)CC6)CCN5C(=O)C[C@H](NC(=O)C[C@H](NC(=O)CC5CC6(CCC6)C5)C(=O)O)C(=O)O)nn4)(C2)C3)s1.[Lu+3] [Compound 109.18] | < 1 nM | 1 to 2.5 nM |  | 
